Experimental data from patent US10364263B2, “Cyclic phosphates and cyclic phosphoramidates for the treatment of neurologic disorders” (Retrophin, Inc., priority 2015, dated 2019).

The compounds below were run on PANK2 silenced human neuroblastoma IMR32 cells (PANK2−/−) (assay: Coenzyme A assay in PANK2 silenced cells (LC-MS quantification of free CoA)). Settings: compound added twice (24 h + 24 h), relative to 0.1% DMSO controls.
Assay type: cell-based
Description: A human neuroblastoma IMR32 cell line (ATCC) with stably PANK2 silencing was obtained by lentiviral-delivered small hairpin RNA and cultured in MEM (Invitrogen) supplemented with 10% fetal bovine serum, 2 mM glutamine, 1% penicillin-streptomycin, 1 mM sodium pyruvate, 1 mM non essential amino acids and 1.5 g/l sodium bicarbonate.
For lentiviral shRNA expression, Human Emryonic Kidney HEK-293T cells (ATCC) were transfected with the appropriate pGFP-Lenti-shRNA constructs and packaging plasmids according to manufacturer's protocol (Origene Technologies, Inc.). Four different gene-specific shRNA expression vectors designed against multiple splice variants of PANK2 (Gene ID 80025) were used for transfection. A non-silencing shRNA construct (scrambled shRNA) and an empty vector expressing GFP alone were used as negative controls. The GFP tag subcloned into the lentiviral vectors was used to monitor the transfection efficiency.
IMR32 cells were plated on 150 cm dishes 48 h before transduction with lentiviral particles.
Three days after transduction medium was removed and replaced with fresh medium containing […] puromycin. Medium was replaced every 48 h. Levels of PANK2 expression on selected clones was assessed by Western Blot analysis.
To quantify CoA, PANK2^−/− IMR32 cells were plated on 12-well culture plates (Corning) at a density of 0.2×10^6 cells per well. After 72 h, compounds were freshly dissolved in DMSO and added to the culture medium to yield a final solvent concentration of 0.1% (v/v). Controls with medium containing 0.1% DMSO without test compounds were also included in each plate. Compound treated cells were incubated for 24 h at 37° C. Treatment was repeated after 24 h with newly dissolved compound and cells were further incubated at 37° C. for additional 24 h. Before LC-MS analysis of CoA levels, cells were harvested, counted, and collected in a 15 ml falcon tube and centrifuged at 200×g for 5 min at 4° C. Supernatant was removed and cell pellet was washed in 10 ml of ice-cold PBS. To further confirm that the numbers of cells in each sample were equivalent, an equal fraction of pellet was collected from each sample and subjected to protein determination analysis. After centrifugation and supernatant removal, the cell pellet was rapidly frozen in Liquid Nitrogen and stored at −80° C. until analysis.
Intracellular CoA levels were calculated considering an intracellular volume of 1 million cells=2 μl.
The 1×10^6 cellular pellet was extracted with 120 μl of aqueous 20% TFA. This solution was stirred for 2 min, sonicated in ultrasonic bath for 2 min, then stirred again for 1 min, and centrifuged for 15 min at 14000 g and at 4° C.
100 μL samples of supernatant were dried under N2 at 20° C. in the dark.
Samples were re-dissolved in 100 μl of 10 mM NH4^+ AcO^− buffer pH 5.1+IS (Dextrorphan 50 ng/ml), stirred for 2 min, sonicated in ultrasonic bath for 1 min, then stirred again for 1 min, and injected into LC-MS.
LC-MS/MS was performed using an Agilent HPLC (1100 Series, USA). The LC system was interfaced with an API-4000 Q-Trap triple quadrupole mass spectrometer (AB Sciex, Toronto, Canada) equipped with a TurbolonSpray ionization source operating in positive ion mode. Analyst™ software version 1.6 (AB Sciex, Toronto, Canada) was used for data acquisition and processing. CoA was separated using a Luna C18 column (2.0×50 mm; 5 μm particle size), column at 25° C. and flow rate of 0.2 ml/min. Injection volume was 15 μl. The mobile phases consisted of water containing 10 mM ammonium acetate pH 7 (mobile phase A) and MeCN-2-propanol 9:1 (mobile phase B). Elution was performed using a gradient starting at 2% B, holding at 2% B until 0.1 min, increasing to 98% B at 3.2 min, holding at 98% B until 4.5 min, returning to 2% B at 4.6 min and holding at 2% B until 7.5 min. Precursor ions and MRM transitions used were: CoA m/z 768.1→261.6 and 768.1→136.1. […]

Compared with COC(=O)CCNC(=O)[C@@H]1O[P@@](=O)(OCOC(=O)c2cc(C(C)(C)C)nn2C)OCC1(C)C [2-169, (((2S,4R)-4-((3-methoxy-3-oxopropyl)carbamoyl)-5,5-dimethyl-2-oxido-1,3,2-dioxaphosphinan-2-yl)oxy)methyl 3-(tert-butyl)-1-methyl-1H-pyrazole-5-carboxylate], COC(=O)CCNC(=O)[C@@H]1O[P@](=O)(OCOC(=O)c2cc(C(C)(C)C)nn2C)OCC1(C)C [2-170, (((2R,4R)-4-((3-methoxy-3-oxopropyl)carbamoyl)-5,5-dimethyl-2-oxido-1,3,2-dioxaphosphinan-2-yl)oxy)methyl 3-(tert-butyl)-1-methyl-1H-pyrazole-5-carboxylate] is higher in “PANK2−/− CoA (Fold Increase): fold increase in Coenzyme A (CoA) levels relative to controls” value: 20.26 Fold Increase for the first, 82.88 Fold Increase for the second.

Compared with COC(=O)CCNC(=O)[C@@H]1O[P@@](=O)(OCOC(=O)NC(C)(C)COC(=O)[C@@H](NC(=O)OCc2ccccc2)C(C)C)OCC1(C)C [2-172, 2-((((((2S,4R)-4-((3-methoxy-3-oxopropyl)carbamoyl)-5,5-dimethyl-2-oxido-1,3,2-dioxaphosphinan-2-yl)oxy)methoxy)carbonyl)amino)-2-methylpropyl ((benzyloxy)carbonyl)-L-valinate], COC(=O)CCNC(=O)[C@@H]1OP(=O)(OCOC(=O)NCCOC(=O)[C@@H](NC(=O)OCc2ccccc2)C(C)C)OCC1(C)C (stereo partly drawn) [2-181, 2-((((((4R)-4-((3-methoxy-3-oxopropyl)carbamoyl)-5,5-dimethyl-2-oxido-1,3,2-dioxaphosphuian-2-yl)oxy)methoxy)carbonyl)amino) ethyl((benzyloxy)carbonyl)-L-valinate] is higher in “PANK2−/− CoA (Fold Increase): fold increase in Coenzyme A (CoA) levels relative to controls” value: 1.95 Fold Increase for the first, 49.59 Fold Increase for the second.

Going from COC(=O)CCNC(=O)[C@@H]1OP(=O)(OCOC(=O)c2scnc2C(C)(C)C)OCC1(C)C (stereo partly drawn) [2-173, (((4R)-4-((3-methoxy-3-oxopropyl)carbamoyl)-5,5-dimethyl-2-oxido-1,3,2-dioxaphosphinan-2-yl)oxy)methyl 4-(tert-butyl)thiazole-5-carboxylate] to COC(=O)CCNC(=O)[C@@H]1O[P@@](=O)(OCOC(=O)c2scnc2C(C)C)OCC1(C)C [2-187, (((2S,4R)-4-((3-methoxy-3-oxopropyl)carbamoyl)-5,5-dimethyl-2-oxido-1,3,2-dioxaphosphinan-2-yl)oxy)methyl 4-isopropylthiazole-5-carboxylate], the “PANK2−/− CoA (Fold Increase): fold increase in Coenzyme A (CoA) levels relative to controls” value rises from 2.57 Fold Increase to 112.41 Fold Increase.

First: COC(=O)CCNC(=O)[C@@H]1OP(=O)(OCOC(=O)N[C@@H](CSC(=O)C(C)(C)C)C(=O)OCc2ccccc2)OCC1(C)C (stereo partly drawn) [2-174, benzyl N-(((((4R)-4-((3-methoxy-3-oxopropyl)carbamoyl)-5,5-dimethyl-2-oxido-1,3,2-dioxaphosphinan-2-yl)oxy)methoxy)carbonyl)-S-pivaloyl-L-cysteinate]
Second: COC(=O)CCNC(=O)[C@@H]1OP(=O)(OCOC(=O)N[C@@H](CSC(=O)C(C)(C)C)C(=O)O)OCC1(C)C (stereo partly drawn) [2-180, N-(((((4R)-4-((3-methoxy-3-oxopropyl)carbamoyl)-5,5-dimethyl-2-oxido-1,3,2-dioxaphosphinan-2-yl)oxy)methoxy)carbonyl)-S-pivaloyl-L-cysteine]
The “PANK2−/− CoA (Fold Increase): fold increase in Coenzyme A (CoA) levels relative to controls” value of the first is higher: 93.99 Fold Increase for the first, 26.8 Fold Increase for the second.

Compared with COC(=O)CCNC(=O)[C@@H]1OP(=O)(OCOC(=O)NCCSC(=O)[C@@H](NC(=O)OCc2ccccc2)C(C)C)OCC1(C)C (stereo partly drawn) [2-175, methyl 3-((4R)-2-(((S)-9-isopropyl-3,8,11-trioxo-13-phenyl-2,12-dioxa-7-thia-4,10-diazatridecyl)oxy)-5,5-dimethyl-2-oxido-1,3,2-dioxaphosphinane-4-carboxamido)propanoate], COC(=O)CCNC(=O)[C@@H]1OP(=O)(OCOC(=O)NCCOC(=O)C(C)(C)C)OCC1(C)C (stereo partly drawn) [2-183, 2-((((((4R)-4-((3-methoxy-3-oxopropyl)carbamoyl)-5,5-dimethyl-2-oxido-1,3,2-dioxaphosphinan-2-yl)oxy)methoxy)carbonyl)amino)ethyl pivalate] is lower in “PANK2−/− CoA (Fold Increase): fold increase in Coenzyme A (CoA) levels relative to controls” value: 9.31 Fold Increase for the first, 3.5 Fold Increase for the second.

First: COC(=O)CCNC(=O)[C@@H]1O[P@@](=O)(OCOC(=O)c2sncc2C)OCC1(C)C [2-176, (((2S,4R)-4-((3-methoxy-3-oxopropyl)carbamoyl)-5,5-dimethyl-2-oxido-1,3,2-dioxaphosphinan-2-yl)oxy)methyl 4-methylisothiazole-5-carboxylate]
Second: COC(=O)CCNC(=O)[C@@H]1O[P@](=O)(OCOC(=O)c2sncc2C)OCC1(C)C [2-177, (((2R,4R)-4-((3-methoxy-3-oxopropyl)carbamoyl)-5,5-dimethyl-2-oxido-1,3,2-dioxaphosphinan-2-yl)oxy)methyl 4-methylisothiazole-5-carboxylate]
The “PANK2−/− CoA (Fold Increase): fold increase in Coenzyme A (CoA) levels relative to controls” value of the first is lower: 53.24 Fold Increase for the first, 77.18 Fold Increase for the second.

Going from COC(=O)CCNC(=O)[C@@H]1O[P@@](=O)(Oc2ccc(F)cc2)OCC1(C)C [2-178, methyl 3-((2S,4R)-2-(4-fluorophenoxy)-5,5-dimethyl-2-oxido-1,3,2-dioxaphosphinane-4-carboxamido)propanoate] to COC(=O)CCNC(=O)[C@@H]1O[P@](=O)(Oc2ccc(F)cc2)OCC1(C)C [2-179, methyl 3-((2R,4R)-2-(4-fluorophenoxy)-5,5-dimethyl-2-oxido-1,3,2-dioxaphosphinane-4-carboxamido)propanoate], the “PANK2−/− CoA (Fold Increase): fold increase in Coenzyme A (CoA) levels relative to controls” value rises from 2.3 Fold Increase to 87.22 Fold Increase.

Going from COC(=O)CCNC(=O)[C@@H]1O[P@@](=O)(OCOC(=O)c2cc(C)nn2C)OCC1(C)C [2-182, (((2S,4R)-4-((3-methoxy-3-oxopropyl)carbamoyl)-5,5-dimethyl-2-oxido-1,3,2-dioxaphosphinan-2-yl)oxy)methyl 1,3-dimethyl-lH-pyrazole-5-carboxylate] to COC(=O)CCNC(=O)[C@@H]1O[P@@](=O)(OCOC(=O)c2ccnn2C)OCC1(C)C [2-184, (((2S,4R)-4-((3-methoxy-3-oxopropyl)carbamoyl)-5,5-dimethyl-2-oxido-1,3,2-dioxaphosphinan-2-yl)oxy)methyl 1-methyl-1H-pyrazole-5-carboxylate], the “PANK2−/− CoA (Fold Increase): fold increase in Coenzyme A (CoA) levels relative to controls” value falls from 24.98 Fold Increase to 21.67 Fold Increase.

Going from COC(=O)CCNC(=O)[C@@H]1O[P@](=O)(OCOC(=O)c2ccnn2C)OCC1(C)C [2-185, (((2R,4R)-4-((3-methoxy-3-oxopropyl)carbamoyl)-5,5-dimethyl-2-oxido-1,3,2-dioxaphosphinan-2-yl)oxy)methyl 1-methyl-1H-pyrazole-5-carboxylate] to COC(=O)CCNC(=O)[C@@H]1O[P@@](=O)(OCOC(=O)c2cc(C(C)(C)C)n[nH]2)OCC1(C)C [2-186, (((2S,4R)-4-((3-methoxy-3-oxopropyl)carbamoyl)-5,5-dimethyl-2-oxido-1,3,2-dioxaphosphuian-2-yl)oxy)methyl 3-(tert-butyl)-1H-pyrazole-5-carboxylate], the “PANK2−/− CoA (Fold Increase): fold increase in Coenzyme A (CoA) levels relative to controls” value falls from 114.15 Fold Increase to 101.14 Fold Increase.
